Results reported in patent US20190048016A1, “SUBSTITUTED BRIDGED UREA ANALOGS AS SIRTUIN MODULATORS” (GlaxoSmithKline Intellectual Property(No.2)Limited, priority 2014, published 2019).

Target: T1, SIRT1 (Homo sapiens, UniProt Q96EB6)
T1 sequence (Q96EB6 1-747): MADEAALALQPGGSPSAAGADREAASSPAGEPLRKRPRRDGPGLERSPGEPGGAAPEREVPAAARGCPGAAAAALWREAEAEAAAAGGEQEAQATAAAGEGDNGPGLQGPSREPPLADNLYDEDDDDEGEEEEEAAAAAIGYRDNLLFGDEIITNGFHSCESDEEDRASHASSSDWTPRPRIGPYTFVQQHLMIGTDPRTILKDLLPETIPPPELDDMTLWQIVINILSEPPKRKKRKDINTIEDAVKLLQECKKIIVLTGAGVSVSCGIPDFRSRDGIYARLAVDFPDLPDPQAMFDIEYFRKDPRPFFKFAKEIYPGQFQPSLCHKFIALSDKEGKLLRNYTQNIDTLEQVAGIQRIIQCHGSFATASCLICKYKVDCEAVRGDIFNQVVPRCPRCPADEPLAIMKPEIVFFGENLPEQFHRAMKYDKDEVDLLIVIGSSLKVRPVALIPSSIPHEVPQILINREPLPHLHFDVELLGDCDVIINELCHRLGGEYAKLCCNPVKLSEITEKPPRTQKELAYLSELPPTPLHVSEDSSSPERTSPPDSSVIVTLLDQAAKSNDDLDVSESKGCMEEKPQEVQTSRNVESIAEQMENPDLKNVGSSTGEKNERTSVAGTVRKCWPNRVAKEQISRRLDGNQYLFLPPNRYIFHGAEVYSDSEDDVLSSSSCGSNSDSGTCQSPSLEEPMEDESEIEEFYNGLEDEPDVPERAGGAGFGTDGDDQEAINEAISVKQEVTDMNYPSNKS
Test: Trp mass spectrometry assay of SIRT1 activation (deacetylation of Ac-R-H-K-K(Ac)-W-NH2 peptide, OAADPR formation)
Type: biochemical
Conditions: Trp peptide 0.5 μM, 120 μM βNAD+, 10 nM SIRT1, 25 min, 25° C.; for Emax: 25 min, read-out: TRP MAX RESP (percent maximum fold activation relative to control = 100%)
Outline: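 10 nM His-tagged SIRT1 (E. coli expressed) with 0.5 μM Ac-RHKK(Ac)W-NH2 and 120 μM βNAD+, 25 min at 25° C, HEPES pH 7.5, […]; formic acid stop. OAADPR or deacetylated peptide measured by mass spectrometry; EC1.5 = concentration giving 150% activity versus DMSO control; maximum activation also reported.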

| SMILES | Emax [%] | TRP Activity (EC1.5, concentration of compound required to increase SIRT1 activity by 50% over control) |
| --- | --- | --- |
| C[C@@H](NC(=O)c1nc2c(cc1Cl)N1CCC[C@@H](C1)N2C(=O)Nc1ccccn1)C(F)(F)F [Example 39, (9S)-3-chloro-N10-(pyridin-2-yl)-N2-((R)-1,1,1-trifluoropropan-2-yl)-8,9-dihydro-6H-5,9-methanopyrido[2,3-b][1,4]diazocine-2,10(7H)-dicarboxamide] | ≥ 150 | A (EC1.5<1 μM) |
| C[C@@H](NC(=O)c1ccc2c(n1)N(C(=O)Nc1ccon1)[C@H]1CCCN2C1)C(F)(F)F [Example 40, (9S)-N10-(isoxazol-3-yl)-N2-((R)-1,1,1-trifluoropropan-2-yl)-8,9-dihydro-6H-5,9-methanopyrido[2,3-b][1,4]diazocine-2,10(7H)-dicarboxamide] | ≥ 150 | A (EC1.5<1 μM) |
| Cc1ccc2c(NC(=O)N3c4nc(C(=O)NCC(F)(F)F)ccc4N4CCC[C@H]3C4)n[nH]c2n1 [Example 41, (9S)-N10-(6-methyl-1H-pyrazolo[3,4-b]pyridin-3-yl)-N2-(2,2,2-trifluoroethyl)-8,9-dihydro-6H-5,9-methanopyrido[2,3-b][1,4]diazocine-2,10(7H)-dicarboxamide] | ≥ 150 | A (EC1.5<1 μM) |
| Cc1ccc2c(NC(=O)N3c4nc(C(=O)NC5CC5)ccc4N4CCC[C@H]3C4)n[nH]c2n1 [Example 42, (9S)-N2-cyclopropyl-N10-(6-methyl-1H-pyrazolo[3,4-b]pyridin-3-yl)-8,9-dihydro-6H-5,9-methanopyrido[2,3-b][1,4]diazocine-2,10(7H)-dicarboxamide] | ≥ 150 | A (EC1.5<1 μM) |
| Cc1ccc2c(NC(=O)N3c4nc(C(=O)N[C@H](C)C(F)(F)F)ccc4N4CCC[C@H]3C4)n[nH]c2n1 [Example 43, (9S)-N10-(6-methyl-1H-pyrazolo[3,4-b]pyridin-3-yl)-N2-((R)-1,1,1-trifluoropropan-2-yl)-8,9-dihydro-6H-5,9-methanopyrido[2,3-b][1,4]diazocine-2,10(7H)-dicarboxamide] | ≥ 150 | A (EC1.5<1 μM) |
| Cc1ncc(-c2ccnc(NC(=O)N3c4nc(C(=O)N[C@H](C)C(F)(F)F)ccc4N4CCC[C@H]3C4)c2)s1 [Example 44, (9S)-N10-(4-(2-methylthiazol-5-yl)pyridin-2-yl)-N2-((R)-1,1,1-trifluoropropan-2-yl)-8,9-dihydro-6H-5,9-methanopyrido[2,3-b][1,4]diazocine-2,10(7H)-dicarboxamide] | ≥ 150 | A (EC1.5<1 μM) |
| Cc1ccc2c(NC(=O)N3c4nc(C(=O)N[C@H](C)C(F)(F)F)cc(C)c4N4CCC[C@H]3C4)n[nH]c2n1 [Example 47, (9S)-4-methyl-N10-(6-methyl-1H-pyrazolo[3,4-b]pyridin-3-yl)-N2-((R)-1,1,1-trifluoropropan-2-yl)-8,9-dihydro-6H-5,9-methanopyrido[2,3-b][1,4]diazocine-2,10(7H)-dicarboxamide] | ≥ 150 | A (EC1.5<1 μM) |
| C[C@@H](NC(=O)c1ccc2c(n1)N(C(=O)Nc1cnc(OC[C@H](O)CO)cn1)[C@H]1CCCN2C1)C(F)(F)F [Example 49, (9S)-N10-(5-((R)-2,3-dihydroxypropoxy)pyrazin-2-yl)-N2-((R)-1,1,1-trifluoropropan-2-yl)-8,9-dihydro-6H-5,9-methanopyrido[2,3-b][1,4]diazocine-2,10(7H)-dicarboxamide] | ≥ 150 | A (EC1.5<1 μM) |
| Cc1ncc(-c2ccnc(NC(=O)N3c4nc(C(=O)N[C@H](C)C(F)(F)F)c(Cl)cc4N4CCC[C@H]3C4)c2)o1 [Example 51, (9S)-3-chloro-N10-(4-(2-methyloxazol-5-yl)pyridin-2-yl)-N2-((R)-1,1,1-trifluoropropan-2-yl)-8,9-dihydro-6H-5,9-methanopyrido[2,3-b][1,4]diazocine-2,10(7H)-dicarboxamide] | ≥ 150 | A (EC1.5<1 μM) |
| C[C@@H](NC(=O)c1ccc2c(n1)N(C(=O)Nc1ccc(OC[C@@H](O)CO)cn1)[C@H]1CCCN2C1)C(F)(F)F [Example 54, (9S)-N10-(5-((S)-2,3-dihydroxypropoxy)pyridin-2-yl)-N2-((R)-1,1,1-trifluoropropan-2-yl)-8,9-dihydro-6H-5,9-methanopyrido[2,3-b][1,4]diazocine-2,10(7H)-dicarboxamide] | ≥ 150 | A (EC1.5<1 μM) |
| C[C@@H](NC(=O)c1ccc2c(n1)N(C(=O)Nc1ccc(OC[C@H](O)CO)nn1)[C@H]1CCCN2C1)C(F)(F)F [Example 55, (9S)-N10-(6-((R)-2,3-dihydroxypropoxy)pyridazin-3-yl)-N2-((R)-1,1,1-trifluoropropan-2-yl)-8,9-dihydro-6H-5,9-methanopyrido[2,3-b][1,4]diazocine-2,10(7H)-dicarboxamide] | ≥ 150 |  |
| Cc1cc(C(=O)N[C@H](C)C(F)(F)F)nc2c1N1CCC[C@@H](C1)N2C(=O)Nc1ccc(OC[C@@H](O)CO)cn1 [Example 56, (9S)-N10-(5-((S)-2,3-dihydroxypropoxy)pyridin-2-yl)-4-methyl-N2-((R)-1,1,1-trifluoropropan-2-yl)-8,9-dihydro-6H-5,9-methanopyrido[2,3-b][1,4]diazocine-2,10(7H)-dicarboxamide] | ≥ 150 | A (EC1.5<1 μM) |
| Cc1cc(C(=O)N[C@H](C)C(F)(F)F)nc2c1N1CCC[C@@H](C1)N2C(=O)Nc1cc(OC[C@H](O)CO)ccn1 [Example 57, (9S)-N10-(4-((R)-2,3-dihydroxypropoxy)pyridin-2-yl)-4-methyl-N2-((R)-1,1,1-trifluoropropan-2-yl)-8,9-dihydro-6H-5,9-methanopyrido[2,3-b][1,4]diazocine-2,10(7H)-dicarboxamide] | ≥ 150 | A (EC1.5<1 μM) |
| O=C(Nc1ccccn1)N1c2nc(-c3cccc(C(F)(F)F)c3)c(Cl)cc2N2CCC[C@H]1C2 [Example 63, (9S)-3-chloro-N-(pyridin-2-yl)-2-(3-(trifluoromethyl)phenyl)-8,9-dihydro-6H-5,9-methanopyrido[2,3-b][1,4]diazocine-10(7H)-carboxamide] | ≥ 150 | A (EC1.5<1 μM) |
| O=C(Nc1cccc(OC[C@@H](O)CO)n1)N1c2nc(-c3cccc(C(F)(F)F)c3)c(Cl)cc2N2CCC[C@H]1C2 [Example 64, (9S)-3-chloro-N-(6-((S)-2,3-dihydroxypropoxy)pyridin-2-yl)-2-(3-(trifluoromethyl)phenyl)-8,9-dihydro-6H-5,9-methanopyrido[2,3-b][1,4]diazocine-10(7H)-carboxamide] | ≥ 150 | A (EC1.5<1 μM) |
| O=C(Nc1cccc(OC[C@H](O)CO)n1)N1c2nc(-c3cccc(C(F)(F)F)c3)c(Cl)cc2N2CCC[C@H]1C2 [Example 65, (9S)-3-chloro-N-(6-((R)-2,3-dihydroxypropoxy)pyridin-2-yl)-2-(3-(trifluoromethyl)phenyl)-8,9-dihydro-6H-5,9-methanopyrido[2,3-b][1,4]diazocine-10(7H)-carboxamide] | ≥ 150 | A (EC1.5<1 μM) |
| Cc1cc(-c2nc3c(cc2Cl)N2CCC[C@@H](C2)N3C(=O)Nc2cccnc2)ccn1 [Example 66, (9S)-3-chloro-2-(2-methylpyridin-4-yl)-N-(pyridin-3-yl)-8,9-dihydro-6H-5,9-methanopyrido[2,3-b][1,4]diazocine-10(7H)-carboxamide] | ≥ 150 |  |
| Cc1cc(-c2nc3c(cc2C)N2CCC[C@@H](C2)N3C(=O)Nc2cccnc2)ccn1 [Example 68, (9S)-3-methyl-2-(2-methylpyridin-4-yl)-N-(pyridin-3-yl)-8,9-dihydro-6H-5,9-methanopyrido[2,3-b][1,4]diazocine-10(7H)-carboxamide] | ≥ 150 | A (EC1.5<1 μM) |
